Experimental data reported in patent US11180452B2, “Methods and compositions for selectively inhibiting pathogenic microbes” (priority 2019, dated 2021).
Converted amounts (≈) assume the structure as drawn.

What was measured:
Type in all cases: cell-based
Bacillus subtilis = Bacillus subtilis MIC / MBC; settings: for MBC: Bacillus subtilis NRRL: B-571, minimum bactericidal concentration; for MIC: Bacillus subtilis, Bacillus subtilis (Ehrenberg 1835) Cohn 1872 NRRL: B-571, read-out: MIC
Bacillus thuringiensis = Bacillus thuringiensis Berliner ATCC: 10792; for MIC: Bacillus thuringiensis, read-out: MIC
Candida glabrata = Candida glabrata MIC / MFC; settings: Nakaseomyces glabratus, Candida glabrata #584 (Table 2); for MIC: read-out: MIC; for MFC: minimum fungicidal concentration, read-out: MFC
Trichophyton rubrum = experiment: MIC against Trichophyton rubrum; settings: Trichophyton rubrum Castellani Sabouraud ATCC: 28188; read-out: MIC
[1] = system: Francisella tularensis subsp. Holarctica Strain LVSR NR-597; experiment: microbe, parasite or virus in culture
[2] = system: Burkholderia thailandensis Brett et al ATCC: 700388; experiment: microbe, parasite or virus in culture

| Structure (SMILES) | MBC (Bacillus subtilis) [µg/mL] | MIC (Bacillus subtilis) [µg/mL] | MBC (Bacillus thuringiensis) [µg/mL] | MIC (Bacillus thuringiensis) [µg/mL] | MIC (Candida glabrata) [µg/mL] | MIC (Trichophyton rubrum) [µg/mL] | MIC [1] [µg/mL] | MIC [2] [µg/mL] | MFC (Candida glabrata) [µg/mL] |
| --- | --- | --- | --- | --- | --- | --- | --- | --- | --- |
| COc1ccc(Sc2c[nH]c3ccccc23)cc1 [Compound 156O, 3-((4-methoxyphenyl)thio)-1H-indole] | 12.5 (≈ 49 µM) | 6.25 (≈ 24.5 µM) | > 50 | 6.25 (≈ 24.5 µM) | 50 (≈ 196 µM) | 3.19 (≈ 12.5 µM) | 3.13 (≈ 12.3 µM) |  |  |
| Brc1ccc(Sc2[nH]c3ccccc3c2Sc2ccc(Br)cc2)cc1 [Compound 156P, 2,3-bis((4-bromophenyl)thio)-1H-indole] | > 50 | 12.5 (≈ 25.4 µM) | > 50 | 3.13 (≈ 6.37 µM) | > 50 | 6.11 (≈ 12.4 µM) | > 50 |  |  |
| COC(=O)c1ccc2[nH]cc(Sc3ccc(Br)cc3)c2c1 [Compound 172G, methyl 3-((4-bromophenyl)thio)-1H-indole-5-carboxylate] | 45 (≈ 124 µM) | 11.3 (≈ 31.2 µM) | > 45 | 11.3 (≈ 31.2 µM) | > 50 | 18.1 (≈ 50 µM) |  |  |  |
| Brc1ccc2[nH]cc(Sc3cccc4ccccc34)c2c1 [Compound 174G, 5-bromo-3-(naphthalen-1-ylthio)-1H-indole] | 50 (≈ 141 µM) | 1.56 (≈ 4.4 µM) | 3.13 (≈ 8.84 µM) | 1.56 (≈ 4.4 µM) | > 50 | 2.21 (≈ 6.24 µM) |  | > 50 |  |
| Brc1ccc2[nH]cc(SCc3ccccc3)c2c1 [Compound 174K, 3-(benzylthio)-5-bromo-1H-indole] | 6.25 (≈ 19.6 µM) | 3.13 (≈ 9.84 µM) | 6.25 (≈ 19.6 µM) | 3.13 (≈ 9.84 µM) | 6.25 (≈ 19.6 µM) | 1.98 (≈ 6.22 µM) |  | > 50 | 12.5 (≈ 39.3 µM) |
| Brc1ccc2[nH]cc(Sc3nc4ccccc4s3)c2c1 [Compound 174L, 2-((5-bromo-1H-indol-3-yl)thio)benzo[d]thiazole] | > 50 | 1.56 (≈ 4.32 µM) | 50 (≈ 138 µM) | 1.56 (≈ 4.32 µM) | > 50 | > 18 |  | > 50 |  |
| Brc1ccc(CSc2c[nH]c3ccc(Br)cc23)cc1 [Compound 174O, 5-bromo-3-((4-bromobenzyl)thio)-1H-indole] | > 50 | 3.13 (≈ 7.88 µM) | 3.13 (≈ 7.88 µM) | 3.13 (≈ 7.88 µM) | > 50 | 1.24 (≈ 3.12 µM) |  | > 50 |  |
| COc1ccc(Sc2c[nH]c3ccc(Br)cc23)cc1 [Compound 174Q, 5-bromo-3-((4-methoxyphenyl)thio)-1H-indole] | > 50 | 1.56 (≈ 4.67 µM) | 12.5 (≈ 37.4 µM) | 1.56 (≈ 4.67 µM) | 3.13 (≈ 9.36 µM) | 2.08 (≈ 6.22 µM) |  | > 50 | > 50 |
| Brc1ccc2[nH]cc(Sc3ccc(-c4ccccc4)cc3)c2c1 [Compound 174R, 3-([1,1′-biphenyl]-4-ylthio)-5-bromo-1H-indole] |  | > 50 |  | > 50 | > 50 | > 9.5 |  | > 50 |  |
| Brc1ccc2[nH]cc(Sc3ccc4ccccc4c3)c2c1 [Compound 174S, 5-bromo-3-(naphthalen-2-ylthio)-1H-indole] |  | > 50 |  | > 50 | > 50 | > 8.82 |  | > 50 |  |
| Clc1cccc(Sc2c[nH]c3ccc(Br)cc23)c1Cl [Compound 174T, 5-bromo-3-((2,3-dichlorophenyl)thio)-1H-indole] | > 10 | 1.25 (≈ 3.35 µM) | 2.5 (≈ 6.7 µM) | 1.25 (≈ 3.35 µM) | 3.13 (≈ 8.39 µM) | 1.16 (≈ 3.11 µM) |  | > 50 | 25 (≈ 67 µM) |
| Nc1cccc(Sc2c[nH]c3ccc(Br)cc23)c1 [Compound 174Y, 3-((5-bromo-1H-indol-3-yl)thio)aniline] | > 10 | 10 (≈ 31.3 µM) | > 10 | 10 (≈ 31.3 µM) | 25 (≈ 78.3 µM) | 3.97 (≈ 12.4 µM) |  | > 50 |  |
| Nc1ccc(Sc2c[nH]c3ccc(Br)cc23)cc1 [Compound 174Z, 4-((5-bromo-1H-indol-3-yl)thio)aniline] | > 10 | 10 (≈ 31.3 µM) | > 10 | 10 (≈ 31.3 µM) | 25 (≈ 78.3 µM) | 3.97 (≈ 12.4 µM) |  | > 50 |  |
